Test results as given in ChEMBL document CHEMBL1201862, “PubChem BioAssay data set” (2004).
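Briefly, cells in 96-well plates were exposed to five compound concentrations for 48 h, and endpoints were estimated by linear interpolation. GI50 marks 50% less growth.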 Calls of active or inactive are those of the source. Cut-off read from the data, not from the text of the source: active = GI50 up to about 1.1 µM and inactive = higher.

Experiments:
Assay in all cases: growth of human tumour cells (NCI), 48 h
SK-MEL-5 = tested on: SK-MEL-5
MOLT-4 = tested on: MOLT-4
SK-MEL-2 = tested on: SK-MEL-2
NCI-H522 = tested on: NCI-H522
SR = tested on: SR
RXF 393 = tested on: RXF 393
HT-29 = tested on: HT-29
EKVX = tested on: EKVX
Hs-578T = tested on: Hs-578T
SK-MEL-28 = tested on: SK-MEL-28
CCRF-CEM = tested on: CCRF-CEM
KM12 = tested on: KM12
HOP-92 = tested on: HOP-92
U-251 = tested on: U-251
TK-10 = tested on: TK-10
M14 = tested on: M14
CAKI-1 = tested on: CAKI-1
HCC 2998 = tested on: HCC 2998
NCI-H23 = tested on: NCI-H23
SK-OV-3 = tested on: SK-OV-3
ACHN = tested on: ACHN
SW-620 = tested on: SW-620
DU-145 = tested on: DU-145
SNB-75 = tested on: SNB-75
MCF7 = tested on: MCF7
A549 = tested on: A549
OVCAR-5 = tested on: OVCAR-5
HOP-62 = tested on: HOP-62
IGROV-1 = tested on: IGROV-1
OVCAR-8 = tested on: OVCAR-8
HCT-116 = tested on: HCT-116
MDA-N = tested on: MDA-N
NCI-H226 = tested on: NCI-H226
UACC-257 = tested on: UACC-257
SF-268 = tested on: SF-268
T47D = tested on: T47D
K562 = tested on: K562
SF-295 = tested on: SF-295
BT-549 = tested on: BT-549
LOX IMVI = tested on: LOX IMVI
OVCAR-3 = tested on: OVCAR-3
NCI-H460 = tested on: NCI-H460
UACC-62 = tested on: UACC-62
COLO 205 = tested on: COLO 205
UO-31 = tested on: UO-31
Malme-3M = tested on: Malme-3M
MDA-MB-231 = tested on: MDA-MB-231
NCI/ADR-RES = tested on: NCI/ADR-RES
HCT-15 = tested on: HCT-15
SN12C = tested on: SN12C
A498 = tested on: A498
OVCAR-4 = tested on: OVCAR-4
MDA-MB-435 = tested on: MDA-MB-435
PC-3 = tested on: PC-3
SNB-19 = tested on: SNB-19
786-0 = tested on: 786-0
SF-539 = tested on: SF-539
HL-60 = tested on: HL-60

SMILES: C/C=C/[C@@H]1[C@H]2C(=O)[C@]3(Cl)[C@@H](/C=C/C)[C@@H]3C(=O)[C@@]12Cl
- GI50 (SK-MEL-5): > 100 µM (inactive)
- GI50 (MOLT-4): 7.16 µM (inactive)
- GI50 (SK-MEL-2): > 100 µM (inactive)
- GI50 (NCI-H522): > 100 µM (inactive)
- GI50 (SR): > 100 µM (inactive)
- GI50 (RXF 393): 55.3 µM (inactive)
- GI50 (HT-29): > 100 µM (inactive)
- GI50 (EKVX): > 100 µM (inactive)
- GI50 (Hs-578T): 35.2 µM (inactive)
- GI50 (SK-MEL-28): > 100 µM (inactive)
- GI50 (CCRF-CEM): 52 µM (inactive)
- GI50 (KM12): > 100 µM (inactive)
- GI50 (HOP-92): 94 µM (inactive)
- GI50 (U-251): 85.3 µM (inactive)
- GI50 (TK-10): > 100 µM (inactive)
- GI50 (M14): > 100 µM (inactive)
- GI50 (CAKI-1): > 100 µM (inactive)
- GI50 (HCC 2998): > 100 µM (inactive)
- GI50 (NCI-H23): > 100 µM (inactive)
- GI50 (SK-OV-3): > 100 µM (inactive)
- GI50 (ACHN): > 100 µM (inactive)
- GI50 (SW-620): > 100 µM (inactive)
- GI50 (DU-145): > 100 µM (inactive)
- GI50 (SNB-75): 53.3 µM (inactive)
- GI50 (MCF7): > 100 µM (inactive)
- GI50 (A549): > 100 µM (inactive)
- GI50 (OVCAR-5): > 100 µM (inactive)
- GI50 (HOP-62): 33.7 µM (inactive)
- GI50 (IGROV-1): > 100 µM (inactive)
- GI50 (OVCAR-8): > 100 µM (inactive)
- GI50 (HCT-116): > 100 µM (inactive)
- GI50 (MDA-N): > 100 µM (inactive)
- GI50 (NCI-H226): > 100 µM (inactive)
- GI50 (UACC-257): > 100 µM (inactive)
- GI50 (SF-268): > 100 µM (inactive)
- GI50 (T47D): > 100 µM (inactive)
- GI50 (K562): > 100 µM (inactive)
- GI50 (SF-295): > 100 µM (inactive)
- GI50 (BT-549): > 100 µM (inactive)
- GI50 (LOX IMVI): > 100 µM (inactive)
- GI50 (OVCAR-3): > 100 µM (inactive)
- GI50 (NCI-H460): > 100 µM (inactive)
- GI50 (UACC-62): > 100 µM (inactive)
- GI50 (COLO 205): > 100 µM (inactive)
- GI50 (UO-31): > 100 µM (inactive)
- GI50 (Malme-3M): > 100 µM (inactive)
- GI50 (MDA-MB-231): 94.2 µM (inactive)
- GI50 (NCI/ADR-RES): > 100 µM (inactive)
- GI50 (HCT-15): > 100 µM
- GI50 (SN12C): > 100 µM (inactive)
- GI50 (A498): > 100 µM (inactive)
- GI50 (OVCAR-4): > 100 µM (inactive)
- GI50 (MDA-MB-435): > 100 µM (inactive)
- GI50 (PC-3): > 100 µM (inactive)
- GI50 (SNB-19): > 100 µM (inactive)
- GI50 (786-0): 46.8 µM (inactive)
- GI50 (SF-539): > 100 µM (inactive)
- GI50 (HL-60): > 100 µM (inactive)

SMILES: Cc1ccc(N)c(S)c1
- GI50 (SK-MEL-5): 16.5 µM (inactive)
- GI50 (MOLT-4): 22 µM (inactive)
- GI50 (SK-MEL-2): 17.2 µM (inactive)
- GI50 (NCI-H522): 17.9 µM (inactive)
- GI50 (SR): 18 µM (inactive)
- GI50 (RXF 393): 16.8 µM (inactive)
- GI50 (HT-29): 19.4 µM (inactive)
- GI50 (EKVX): 16.2 µM (inactive)
- GI50 (Hs-578T): 38 µM (inactive)
- GI50 (SK-MEL-28): 27.5 µM (inactive)
- GI50 (CCRF-CEM): 18 µM (inactive)
- GI50 (KM12): 18.3 µM (inactive)
- GI50 (HOP-92): 16.6 µM (inactive)
- GI50 (U-251): 15.2 µM (inactive)
- GI50 (TK-10): 21.8 µM (inactive)
- GI50 (M14): 16.9 µM (inactive)
- GI50 (CAKI-1): 28.8 µM (inactive)
- GI50 (HCC 2998): 32.1 µM (inactive)
- GI50 (NCI-H23): 17.7 µM (inactive)
- GI50 (SK-OV-3): 27.9 µM (inactive)
- GI50 (ACHN): 18.5 µM (inactive)
- GI50 (SW-620): 17.6 µM (inactive)
- GI50 (DU-145): 15.7 µM (inactive)
- GI50 (SNB-75): 21.7 µM (inactive)
- GI50 (MCF7): 18.5 µM (inactive)
- GI50 (A549): 21.5 µM (inactive)
- GI50 (OVCAR-5): 22.3 µM (inactive)
- GI50 (HOP-62): 21.5 µM (inactive)
- GI50 (IGROV-1): 17.7 µM (inactive)
- GI50 (OVCAR-8): 17.1 µM (inactive)
- GI50 (HCT-116): 32.1 µM (inactive)
- GI50 (MDA-N): 14.9 µM (inactive)
- GI50 (NCI-H226): 22 µM (inactive)
- GI50 (UACC-257): 23.3 µM (inactive)
- GI50 (SF-268): 20.8 µM (inactive)
- GI50 (T47D): 14.8 µM (inactive)
- GI50 (K562): 28.6 µM (inactive)
- GI50 (SF-295): 18 µM (inactive)
- GI50 (BT-549): 18.6 µM (inactive)
- GI50 (LOX IMVI): 16.4 µM (inactive)
- GI50 (OVCAR-3): 21.3 µM (inactive)
- GI50 (NCI-H460): 22 µM (inactive)
- GI50 (UACC-62): 17.6 µM (inactive)
- GI50 (COLO 205): 22.7 µM (inactive)
- GI50 (UO-31): 13.8 µM (inactive)
- GI50 (Malme-3M): 30.5 µM (inactive)
- GI50 (MDA-MB-231): 17.1 µM (inactive)
- GI50 (NCI/ADR-RES): 24 µM (inactive)
- GI50 (HCT-15): 16.7 µM
- GI50 (SN12C): 1.7 µM (inactive)
- GI50 (A498): 16.7 µM (inactive)
- GI50 (OVCAR-4): 20 µM (inactive)
- GI50 (MDA-MB-435): 19 µM (inactive)
- GI50 (PC-3): 15.3 µM (inactive)
- GI50 (SNB-19): 21.1 µM (inactive)
- GI50 (786-0): 16.1 µM (inactive)
- GI50 (SF-539): 17.5 µM (inactive)
- GI50 (HL-60): 25.2 µM (inactive)
